According to ChEMBL document CHEMBL1212933, “Alcoholysis of naturally occurring imides: misleading interpretation of antifungal activities” (J Nat Prod, 2010):
≈ marks a conversion by molar mass, not a printed value.

Key:
[1] = system: Cladosporium herbarum; experiment: Antifungal activity against Cladosporium herbarum; format: functional, organism-based
[2] = system: Penicillium griseofulvum; experiment: Antifungal activity against Penicillium griseofulvum; format: functional, organism-based

EC50 [1]: 0.9 µg/mL (≈ 3.61 µM)
EC50 [2]: 3 µg/mL (≈ 12 µM)
SMILES: CS/C=C/C(=O)N(C)C(=O)Cc1ccccc1 [PENIMIDE A]
